Measurements published in patent publication US6774141B1, “Calanolide and related antiviral compounds, compositions, and uses thereof” (The United States of America as represented by the …, priority 1992, dated 2004).
Where two headings read alike, the source gives them in different places.

What was measured:
[1] = system: HIV-1; assay: microbe, parasite or virus in culture; settings: for anti-HIV activity in the primary screening assay / inhibition of the cytopathic effects of HIV-1 upon CEM-SS cells: result in words; for antiviral potency relative to calanolide A: overall of XTT and BCECF assays; for inhibition of the cytopathic effects of HIV-1 upon CEM-SS cells: battery of interrelated assays, 6 days
Excerpt: Pure compounds were initially evaluated for antiviral activity using an XTT-tetrazolium anti-HIV primary screening assay described previously (Boyd, M. R., in AIDS Etiology, Diagnosis, Treatment and Prevention (DeVita V. T., Jr., Hellman S., Rosenberg S. A., eds.), pp 305-319 (Philadelphia: Lippincott, 1988); Gustafson, K. R., et al., J. Med. Chem., 35, 1978-1986 (1992); Weislow, O. S., et al., J. Natl. Cancer Inst., 81, 577-586 (1989); Gulakowski, R. J., et al., J. Virol. Methods, 33, 87-100 (1991)). The CEM-SS human lymphocytic target cell line used in all assays was maintained in RPMI 1640 medium (Gibco, Grand Island, N.Y.), without phenol red, and was supplemented with 5% fetal bovine serum, 2 mM L-glutamine and 50 μg/ml gentamicin (complete medium). Exponentially-growing cells were pelleted and resuspended at a concentration of 2.0×10^5 cells/ml in complete medium. The Haitian variant of HIV, HTLV-IIIRF (3.54×10^6 SFU/ml), was used throughout. Frozen virus stock solutions were thawed immediately before use and resuspended in complete medium to yield […]. The appropriate amounts of the pure compounds for anti-HIV evaluations were dissolved in 100% dimethylsulfoxide (DMSO), then diluted in complete medium to the desired initial concentration (and with the final DMSO content not exceeding 1%). All serial drug dilutions, reagent additions, and plate-to-plate transfers were carried out with an automated Biomek 1000 Workstation (Beckman Instruments, Palo Alto, Calif.).
Briefly, the procedure was as follows. Uninfected CEM-SS cells were plated at a density of 1×10^4 cells in 50 μl of complete medium. Diluted HIV-1 virus was then added to appropriate wells in a volume of 50 μl to yield a multiplicity of infection of 0.6. Appropriate cell, virus and drug controls were incorporated in each experiment; the final volume in each microtiter well was 200 μl. Quadruplicate wells were used for virus-infected cells, and duplicate wells were used for uninfected cells. Plates were incubated at 37° C. in an atmosphere containing 5% CO2 for 6 days. Subsequently, aliquots of cell-free supernatant were removed from each well using the Biomek, and analyzed for reverse transcriptase activity, p24 antigen production and synthesis of infectious virions as described (Gulakowski, R. J., et al., J. Virol. Methods, 33, 87-100 (1991)). Cellular growth or viability then was estimated on the remaining contents of each well using the XTT (Weislow, O. S., et al., J. Natl. Cancer Inst., 81, 577-586 (1989)), BCECF (Rink, T. L., et al., J. Cell. Biol., 95, 189-196 (1982)) and DAPI (McCaffrey, T. A., et al., In Vitro Cell Develop. Biol., 24, 247-252 (1988)) assays as described (Gulakowski, R. J., et al., J. Virol. Methods, 33, 87-100 (1991)).

[2] = system: CEM-SS cells; assay: XTT assay, direct cytotoxicity upon uninfected CEM-SS target cells; format: cell-based, human
Excerpt: (§1) Briefly, the procedure was as follows.

[3] = system: HIV-1; settings: for EC50: read-out: EC50 μM (±S.D.) SFU, quadruplicate tests, supernatant syncytium-forming units
[4] = system: HIV-1; settings: for EC50: read-out: EC50 μM (±S.D.) p24, quadruplicate tests, supernatant viral core protein
[5] = system: CEM-SS cells; assay: BCECF assay, direct cytotoxicity upon uninfected CEM-SS target cells; format: cell-based, human; settings: quadruplicate tests, cytotoxicity to CEM-SS, read-out: IC50 μM (± SD) BCECF
Excerpt: as §1

[6] = system: HIV-1; settings: for EC50: read-out: EC50 μM (±S.D.) RT, quadruplicate tests, supernatant reverse transcriptase
[7] = system: HIV-1; assay: microbe, parasite or virus in culture; settings: Human immunodeficiency virus 1, CEM-SS, read-out: EC50 μM (±S.D.) RT
[8] = system: HIV-1; assay: microbe, parasite or virus in culture; settings: Human immunodeficiency virus 1, CEM-SS, read-out: EC50 μM (±S.D.) p24
[9] = system: HIV-1; assay: microbe, parasite or virus in culture; settings: Human immunodeficiency virus 1, CEM-SS, read-out: EC50 μM (±S.D.) SFU
[10] = XTT assay, direct cytotoxicity upon uninfected CEM-SS target cells; format: cell-based, human; settings: human, uninfected CEM-SS cells; FIGS. 4A-D, CEM-SS cells, 6 days
Excerpt: as §1

[11] = system: HIV; settings: in most patients; cited from earlier work
[12] = primary screening assay, HIV-1 in CEM-SS cells
[13] = primary screening assay, cytotoxicity to CEM-SS cells, read-out: IC50
[14] = read-out: EC50 μM (± SD) BCECF, quadruplicate tests, HIV-1 strain RF, CEM-SS
[15] = read-out: EC50 μM (± SD) XXT, quadruplicate tests, HIV-1 strain RF, CEM-SS
[16] = quadruplicate tests, cytotoxicity to CEM-SS, read-out: IC50 μM (± SD) XXT
[17] = HIV-1-infected CEM-SS, FIG. 4D, result in words

Molecule | anti-HIV activity in the primary screening assay ([1]; HIV-1 in CEM-SS cells) | EC50 [3] | antiviral potency relative to calanolide A ([1]; HIV-1 strain RF, CEM-SS) | EC50 [1, 14] | EC50 [1, 15] | EC50 [4] | IC50 [5] | IC50 [2, 16] | EC50 [6] | further results
CCCc1cc(=O)oc2c3c(c4c(c12)OC(C)(C)C=C4)O[C@H](C)[C@@H](C)[C@@H]3OC(C)=O [12-acetoxycalanolide A] | active | – | – | – | – | – | – | – | – | EC50 [1, 12]: 2.7 µM; IC50 [2, 13]: 13 µM
CCCc1cc(=O)oc2c3c(c4c(c12)OC(C)(C)C=C4)O[C@H](C)[C@@H](C)[C@@H]3OC [12-methoxycalanolide A] | not detectable | – | – | – | – | – | – | – | – | –
CCCc1cc(=O)oc2c3c(c4c(c12)OC(C)(C)C=C4)O[C@H](C)[C@@H](C)[C@H]3OC [12-methoxycalanolide B] | weak but detectable | – | – | – | – | – | – | – | – | –
CCCc1cc(=O)oc2c3c(c4c(c12)OC(C)(C)C=C4)OC(C)C(C)C3O (stereo not shown) [Compound 6] | weak but detectable | – | – | – | – | – | – | – | – | –
CCCc1cc(=O)oc2c3c(c4c(c12)OC(C)(C)C=C4)O[C@@H](C)[C@H](C)[C@@H]3O [Costatolide, costatolide] | – | 0.14 µM | about ⅔ | 0.2 µM | 0.23 µM | 0.11 µM | 8 µM | 10 µM | 0.12 µM | –
CCCc1cc(=O)oc2c3c(c4c(c12)OC(C)(C)CC4)O[C@H](C)[C@@H](C)[C@@H]3O [DH-calanolide A, 7,8-dihydrocalanolide A] | – | 0.17 µM | about ⅔ | 0.19 µM | 0.23 µM | 0.12 µM | 18.7 µM | 12.5 µM | 0.13 µM | –
CCCc1cc(=O)oc2c3c(c4c(c12)OC(C)(C)CC4)O[C@@H](C)[C@H](C)[C@@H]3O [DH-costatolide, 7,8-dihydrocostatolide] | – | 0.19 µM | about ⅓ | 0.31 µM | 0.3 µM | 0.24 µM | 10.3 µM | 18.7 µM | 0.25 µM | –
CCCc1cc(=O)oc2c3c(c4c(c12)OC(C)(C)C=C4)O[C@H](C)[C@@H](C)[C@@H]3O [calanolide A] | complete protection | – | – | – | – | – | – | – | – | production of SFU [3, 17]: strikingly inhibited; EC50 ([1]; Human immunodeficiency virus 1, CEM-SS, 144 h, read-out: EC50, inhibition of the cytopathic effects of HIV-1): ~0.1 µM; EC50 ([1]; Human immunodeficiency virus 1, CEM-SS, read-out: EC50 μM (± SD) BCECF): 0.16 µM; EC50 ([1]; Human immunodeficiency virus 1, CEM-SS, read-out: EC50 μM (± SD) XXT): 0.13 µM; inhibition of the cytopathic effects of HIV-1 upon CEM-SS cells [1]: complete inhibition; production of p24 [4, 17]: strikingly inhibited; IC50 ([5]; Homo sapiens): 14.3 µM; EC50 [7]: 0.07 µM; EC50 [8]: 0.07 µM; EC50 [9]: 0.08 µM; IC50 ([2]; Homo sapiens, quadruplicate tests, cytotoxicity to CEM-SS, read-out: IC50 μM (± SD) XXT): 14.3 µM; IC50 at 6 days [10]: ~13000 nM; production of RT [6, 17]: strikingly inhibited
Nc1ccn([C@H]2CC[C@@H](CO)O2)c(=O)n1 [ddC, 2′,3′-dideoxycytidine] | – | – | – | – | – | – | – | – | – | virustatic range, dose [11]: 0.005-0.25 mg/kg body weight
calanolide B | complete inhibition | – | – | – | – | – | – | – | – | inhibition of the cytopathic effects of HIV-1 upon CEM-SS cells [1]: complete protection; EC50 [1, 12]: 0.4 µM; IC50 [2, 13]: 15 µM
